Experiment [1] concerns rats. The note with it: morphine, cited from earlier work.
Experiment [2] deals with rats. As to the kind of experiment: Potentiation of morphine analgesia and acute morphine tolerance, tail flick and paw pressure tests. The class given is in vivo, rat. As to the method:
(§1) Experiments were conducted using adult male Sprague-Dawley rats (Charles River, St. Constant, QC, Canada) weighing between 200-250 grams. Animals were housed individually in standard laboratory cages, maintained on a 12-hour light/dark cycle, and provided with food and water ad libitum. The surgical placement of chronic indwelling intrathecal catheters (polyethylene PE 10 tubing, 7.5 cm) into the spinal subarachnoid space was made under 4% halothane anesthesia, using the method of Yaksh and Rudy Physiol. Behav. 1976 7:1032-1036). Specifically, the anesthetized animal was placed prone in a stereotaxic frame, a small incision made at the back of the neck, and the atlanto-occipital membrane overlying the cisterna magna was exposed and punctured with a blunt needle. The catheter was inserted through the cisternal opening and slowly advanced caudally to position its tip at the lumbar enlargement. The rostral end of the catheter was exteriorized at the top of the head and the wound closed with sutures. Animals were allowed 3-4 days recovery from surgery and only those free from neurological deficits, such as the hindlimb or forelimb paralysis or gross motor dysfunction, were included in the study. All drugs were injected intrathecally as solutions dissolved in physiological saline (0.9%) through the exteriorized portion of the catheter at a volume of 10 μl followed by a 10 μl volume of 0.9% saline to flush the catheter.
(§2) The tail flick test (D'amour & Smith, J. Pharmacol. Exp. Ther. 1941 72:74-79) was used to measure the response to a thermal nociceptive stimulus. Radiant heat was applied to the distal third of the animal's tail and the response latency for tail withdrawal from the source was recorded using an analgesia meter (Owen et al., J. Pharmacol. Methods 1981 6:33-37)). The stimulus intensity was adjusted to yield baseline response latencies between 2-3 seconds. To minimize tail damage, a cutoff of 10 seconds was used as an indicator of maximum antinociception.
(§3) The paw pressure test (Loomis et al., Pharm. Biochem. 1987 26:131-139) was used to measure the response to a mechanical nociceptive stimulus. Pressure was applied to the dorsal surface of the hind paw using an inverted air-filled syringe connected to a gauge and the value at which the animal withdrew its paw was recorded. A maximum cutoff pressure of 300 mmHg was used to avoid tissue damage. Previous experience has established that there is no significant interaction between the tail flick and paw pressure tests (Loomis et al., Can. J. Physiol. Pharmacol. 1985 63:656-662).
The effects of ultra-low doses of atipemazole, yohimbine, idazoxan and mirtazapine, as well as the selective alpha-2A receptor antagonist BRL 44408, were also tested for potentiation of acute analgesic action of spinal or subcutaneous morphine. Acute opioid tolerance was induced by three serial intrathecal morphine injections (15 μg) or systemic morphine injections (2.5 mg/kg sc). Rats were administered morphine alone, a combination of morphine (15 μg intrathecally or 2.5 mg/kg sc) and an ultra low dose of atipemazole, yohimbine, idazoxan, mirtazapine, or BRL 44408. Results for atipemazole are depicted in FIGS. 2A, 2B, 11A and 11B. Results for yohimbine are depicted in FIGS. 6A and 6B. Results for idazoxan are depicted in FIGS. 10A and 10B. Results for mirtazapine are depicted in FIGS. 8A and 8B. Results for BRL 44408 are depicted in FIGS. 14A and 14B.
For the in vivo studies, tail flick and paw pressure values were converted to a maximum percentage effect (M.P.E.): M.P.E.=100×[post-drug response−baseline response]/[maximum response−baseline response]. Data represented in the figures are expressed as mean (±S.E.M.). The ED50 values were determined using a non-linear regression analysis (Prism 2, GraphPad Software Inc., San Diego, Calif., USA). […]

Experiment [3] relates to rats. As to the kind of experiment: Formalin test, persistent inflammatory pain model. The class given is in vivo, rat. Conditions: atipemazole alone sc 20 minutes prior to 1% formalin into hind paw; dark phase; N=4; FIGS. 15A, 15B. As to the method:
In a further experiment, the analgesic effect of atipemazole was examined using the formalin test, a persistent inflammatory pain model. The experiment was conducted with rats during the dark phase of the light-dark cycle. Rats were administered 1% formalin and pain behaviour was assessed by a weighted score. Atipemazole, morphine, or vehicle was injected by subcutaneous injection 20 minutes prior to formalin injection into the plantar surface of the rat hind paw. The behavior was evaluated in 5 min intervals, and the severity of the response was determined.
The formalin test is a widely used tonic model of continuous pain resulting from formalin-induced tissue injury. It is a useful model, particularly for the screening of novel compounds, since it encompasses inflammatory, neurogenic, and central mechanisms of nociception. We used 1% formalin and assessed pain behavior by a weighted score. […]
Briefly, the nociceptive behavior was assessed as follows: (1) no favouring of the injected hind paw, (2) favouring, (3) complete elevation of the hind paw from the floor, and (4) licking or flinching. The behavior was evaluated in 5 min intervals, and the severity of the response was determined by the following formula: (0×the time spent in category 1, 1×the time spent in category 2, 2×the time spent in category 3, 3×the time spent in category 4).

In experiment [4] the test system is rats. As to the kind of experiment: Analgesic effect of ultra-low dose alpha-2 receptor antagonist administered alone, tail flick and paw pressure tests. The class given is in vivo, rat. As to the method:
Baseline latencies were obtained every 5 minutes for 15 minutes prior to injection of either vehicle (saline 0.9%) or atipemazole and tested every 30 minutes for 3 hours. Data were converted to % maximum possible effect.
as §1, §2, §3
The analgesic effect of an ultra-low dose of an alpha-2 receptor antagonist administered alone was examined. Atipemazole was administered systemically, in three successive administrations, at 20 ng/kg or 200 ng/kg.
The analgesic effect of an ultra-low dose of an alpha-2A receptor antagonist administered alone was also examined. BRL 44408 was administered intrathecally, in a single administration, at 1.65 ng. In another study, three successive doses of BRL 44408 (1.65 ng) were administered intrathecally.
For the in vivo studies, tail flick and paw pressure values were converted to a maximum percentage effect (M.P.E.): M.P.E.=100×[post-drug response−baseline response]/[maximum response−baseline response]. Data represented in the figures are expressed as mean (±S.E.M.). The ED50 values were determined using a non-linear regression analysis (Prism 2, GraphPad Software Inc., San Diego, Calif., USA). Statistical significance (p<0.05, 0.01. or 0.001) was determined using a one-way analysis of variance followed by a Student Newman-Keuls post hoc test for multiple comparisons between groups.

Experiment [5] has as its system spinal alpha-2 receptors. Put plainly: Inhibition of spinal clonidine analgesia by alpha-2 receptor antagonists (tail flick / paw pressure). The class given is in vivo, rat. The note with it: tail flick test, FIG. 12. As to the method: Experiments were conducted using adult male Sprague-Dawley rats (Charles River, St. Constant, QC, Canada) weighing between 200-250 grams. Animals were housed individually in standard laboratory cages, maintained on a 12-hour light/dark cycle, and provided with food and water ad libitum. The surgical placement of chronic indwelling intrathecal catheters (polyethylene PE 10 tubing, 7.5 cm) into the spinal subarachnoid space was made under 4% halothane anesthesia, using the method of Yaksh and Rudy Physiol. Behav. 1976 7:1032-1036). […]
The tail flick test (D'amour & Smith, J. Pharmacol. Exp. Ther. 1941 72:74-79) was used to measure the response to a thermal nociceptive stimulus. Radiant heat was applied to the distal third of the animal's tail and the response latency for tail withdrawal from the source was recorded using an analgesia meter (Owen et al., J. Pharmacol. Methods 1981 6:33-37)). […]
The paw pressure test (Loomis et al., Pharm. Biochem. 1987 26:131-139) was used to measure the response to a mechanical nociceptive stimulus. Pressure was applied to the dorsal surface of the hind paw using an inverted air-filled syringe connected to a gauge and the value at which the animal withdrew its paw was recorded. […]
Background: In hot-plate and tail-flick tests a longer latency is read as antinociception.

Structures are written as SMILES.

`CN1CC[C@]23c4c5ccc(O)c4O[C@H]2[C@@H](O)C=C[C@H]3[C@H]1C5` [morphine]: the “ED50 dose during the dark phase” value in experiment [1] (dark phase of light-dark cycle) is 0.25 mg/kg. In addition, the “ED50 dose during the light phase” value in experiment [1] (light phase of light-dark cycle) is 5 mg/kg. Also, in experiment [1] (nociceptive testing), the “potency in the dark phase compared to the light phase” value is on record as 10 fold. Besides, the “analgesic response to repeated morphine” value in experiment [2] (morphine 2.5 mg/kg sc alone, three injections at 90 minute intervals, both tests, FIGS. 11A, 11B) is “rapid decay of the analgesic response”. Moreover, in experiment [2] (three successive intrathecal doses of morphine 15 μg at 90 minute intervals, end of the 240 minute test period, FIGS. 2A, 2B), the “decline of the analgesic effect of morphine observed after the first injection” value is roughly 80%.
As to `CCC1(c2cnc[nH]2)Cc2ccccc2C1` [atipemazole], in experiment [3], the “analgesia in the formalin test (weighted pain score)” value is “as effective as morphine”. In addition, in experiment [2] (atipemazole 0.8 ng with morphine 15 μg intrathecally, three injections at 90 minute intervals, FIGS. 2A, 2B), the “effect on acute tolerance to the analgesic actions of spinal morphine” value is “prevented the decline of the analgesic effect of morphine”. Also, the “effect on acute morphine analgesia” value in experiment [2] (atipemazole 0.8 or 0.08 ng with morphine 15 μg intrathecally, FIGS. 3A, 3B) was “potentiates opioid analgesia”. The “effect on acute tolerance to morphine (loss of response)” value in experiment [2] (atipemazole 20 or 200 ng/kg sc with morphine 2.5 mg/kg sc, three injections at 90 minute intervals, FIGS. 11A, 11B) is “significantly reduced the loss of response to morphine alone”. The “analgesic response, antagonist alone, repeated administration” value (shortened to “analgesic response, antagonist alone”) in experiment [4] (atipemazole 0.8 ng intrathecally alone at 90 minute intervals, FIGS. 2A, 2B) was “incremental but weak analgesic response”. Moreover, the “analgesic effect, antagonist alone” value in experiment [4] (atipemazole 0.8 ng intrathecally alone, FIGS. 3A, 3B) was “weak, albeit insignificant, analgesic effect”. In addition, the “antinociceptive effect in the tail flick test, dark phase” value in experiment [4] (atipemazole 200 ng/kg sc, rats on reverse light/dark cycle, administered during the dark phase, tested every 30 minutes for 3 hours) is given as “did not produce a significant antinociceptive effect”. In experiment [4] (atipemazole 20 and 200 ng/kg sc alone at 90 minute intervals, tail flick, FIG. 11A), the “analgesic response in the tail flick test, antagonist alone” value is “delayed analgesic response”.
Consider `c1ccc2c(c1)OCC(C1=NCCN1)O2` (stereo not drawn) [idazoxan], for which the “analgesic response, antagonist alone” value in experiment [4] (idazoxan intrathecally alone, ultra-low dose, repeated) is on record as “no significant analgesic response”.
`CC1c2ccccc2CN1CC1=NCCN1.O=C(O)/C=C\C(=O)O` (stereo not drawn) [BRL 44408, 2-[2H-(1-Methyl-1,3-dihydroisoindole)methyl]-4,5-dihydroimidazole maleate]: the “antagonism of clonidine analgesia” value is “did not antagonize clonidine” in experiment [5] (BRL 44408 3.3 μg with clonidine 13.3 μg intrathecally) and “antagonized clonidine analgesia” in experiment [5] (BRL 44408 16.5 μg with clonidine 13.3 μg intrathecally). For the same molecule, in experiment [2] (BRL 44408 1.65 ng with morphine 15 μg intrathecally once, relative to morphine alone, FIGS. 13A, 13B), the “effect on morphine analgesia after a single administration” value is given as “significantly increased morphine analgesia”. In addition, the “effect on analgesic action of morphine in the acute tolerance study” value in experiment [2] (BRL 44408 1.65 ng with morphine intrathecally, three injections at 90 minute intervals, FIGS. 14A, 14B) is given as “increased the acute analgesic action of morphine”. Also, in experiment [4] (BRL 44408 1.65 ng intrathecally alone, single administration, relative to saline, FIGS. 13A, 13B), the “analgesia after a single administration, antagonist alone” value is “significant analgesia, relative to saline administration, after 60 minutes”. Besides, the “course and duration of analgesia after a single administration, antagonist alone” value in experiment [4] (BRL 44408 1.65 ng intrathecally alone, single administration, FIGS. 13A, 13B) is “increased and persisted for the duration of the study (180 minutes)”.
Turning to `COC(=O)[C@@H]1[C@H]2C[C@H]3c4[nH]c5ccccc5c4CCN3C[C@@H]2CC[C@@H]1O` [yohimbine], the “analgesic response, antagonist alone” value in experiment [4] (yohimbine 0.024 ng intrathecally alone at 90 minute intervals, FIGS. 6A, 6B) is reported as “no significant analgesic response”.

These data come from patent publication US20110053913A1, “Methods and Therapies for Alleviating Pain” (priority 2009, published 2011).
